{
  "source": "patent US8835571B2",
  "about": "“Fatty acid derivative-polymer conjugate” (Sucampo AG, priority 2012, dated 2014)",
  "experiment": "incorporation of unoprostone isopropyl into MPEG-hexPLA polymer micelles",
  "assay_type": "physicochemical",
  "protocol": "The incorporation studies were carried out by a standard formulation protocol. Briefly, a defined amount of the provided unoprostone isopropyl ethanol solution was taken and the ethanol rapidly evaporated, the remaining compound was re-dissolved together with the MPEG-hexPLA excipient in acetone and added dropwise under sonication into water, followed by evaporation of the organic solvent and equilibration of the micelle solution overnight.\nAs it can be seen, for loadings up to 500 mg unoprostone isopropyl per gram MPEGhexPLA, loading efficiencies higher than 80% could be obtained by this simple procedure (FIG. 1), corresponding to 2.22 mg drug per mL formulation (FIG. 2). […] The latter formulations with a minimum of drug loss in the formulation procedure gave transparent formulations.",
  "data": [
    {"smiles": "CCCCCCCC(=O)CC[C@@H]1[C@@H](C/C=C\\CCCC(=O)OC(C)C)[C@@H](O)C[C@H]1O", "note": "[unoprostone isopropyl, (+)-isopropyl (Z)-7-[(1R,2R,3R,5S)-3,5-dihydroxy-2-(3-oxodecyl)cyclopentyl]hept-5-enoate]", "values": [
      {"measurement": "obtained drug concentration in formulation", "setting": "loading 500 mg per gram MPEGhexPLA (FIG. 2)", "result": "2.22 mg drug per mL formulation"},
      {"measurement": "Incorporation efficiencies", "setting": "loadings up to 300 mg/g", "result": "> 90", "unit": "%"},
      {"measurement": "obtained drug concentration in formulation", "setting": "loadings up to 300 mg/g", "result": "≤ 1.67", "unit": "mg/mL"},
      {"measurement": "loading efficiencies", "setting": "loadings up to 500 mg unoprostone isopropyl per gram MPEGhexPLA (FIG. 1)", "result": "higher than 80%"}
    ]}
  ]
}
